In brackets after ≈: the same amount, converted by molar mass. Where two headings read alike, the source gives them in different places.
Columns and labels:
[1] = test system: Staphylococcus aureus V41; test: MIC, standard agar-dilution assay (Table IX); format: cell-based; conditions: Staphylococcus aureus V41, Penicillin-resistant strain, read-out: MIC
[2] = Titratable groups in 66% aqueous DMF (Tables XIV-XVI); format: physicochemical
Excerpt: ^c Run in 66% aqueous DMF
^d Run in 66% aqueous DMF

[3] = test system: Streptococcus Group D X66; test: MIC, standard agar-dilution assay (Table IX); format: cell-based; conditions: read-out: MIC
[4] = test system: Escherichia coli N10; test: MIC, standard agar-dilution assay (Table IX); format: cell-based; conditions: read-out: MIC
[5] = test system: Pasteurella multocida; test: Pasteurella infection in one-day-old chicks, subcutaneous administration (Table XII); format: in vivo; conditions: Administered subcutaneously, 30 mg/kg × 2, 1 and 4 hours post-challenge
Procedure, shortened: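 Treatment was 30 mg/kg s.c., given twice (1 and 4 h after infection). The infection itself was induced in day-old chicks by s.c. injection of 0.1 ml of avian Pasteurella multocida culture (20-h tryptose broth, diluted 10^-4).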

[6] = test system: Streptococcus pyogenes C203; test: MIC, standard agar-dilution assay (Table IX); format: cell-based; conditions: read-out: MIC
[7] = test system: Pasteurella multocida 60A; test: MIC, broth-dilution microtiter test (Table X); format: cell-based; conditions: Avian isolate, read-out: MIC
Excerpt: (§1) The MIC's in Table X were obtained using conventional broth-dilution microtiter tests.

[8] = test system: Mycoplasma synoviae 40A; test: MIC, broth-dilution microtiter test (Table X); format: cell-based; conditions: Mycoplasmopsis synoviae, read-out: MIC
Excerpt: as §1

[9] = test system: Streptococcus sp. 19F; test: MIC, broth-dilution microtiter test (Table X); format: cell-based; conditions: read-out: MIC
Excerpt: as §1

[10] = test system: Mycoplasma gallisepticum 29C; test: MIC, broth-dilution microtiter test (Table X); format: cell-based; conditions: Mycoplasmoides gallisepticum, read-out: MIC
Excerpt: as §1

[11] = test system: Pasteurella hemolytica 22C; test: MIC, broth-dilution microtiter test (Table X); format: cell-based; conditions: read-out: MIC
Excerpt: as §1

[12] = test system: Mycoplasma hyorhinis 29E; test: MIC, broth-dilution microtiter test (Table X); format: cell-based; conditions: read-out: MIC
Excerpt: as §1

[13] = test system: Staphylococcus aureus; test: MIC, broth-dilution microtiter test (Table X); format: cell-based; conditions: read-out: MIC
Excerpt: as §1

[14] = test system: Pasteurella multocida 17E; test: MIC, broth-dilution microtiter test (Table X); format: cell-based; conditions: Bovine isolate, read-out: MIC
Excerpt: as §1

[15] = test system: Staphylococcus epidermidis 222; test: MIC, standard agar-dilution assay (Table IX); format: cell-based; conditions: read-out: MIC
[16] = test system: Haemophilus influenzae 76; test: MIC, standard agar-dilution assay (Table IX); format: cell-based; conditions: Haemophilus influenzae 76, Ampicillin-resistant strain, read-out: MIC
[17] = test system: Staphyloccus aureus X1.1; test: MIC, standard agar-dilution assay (Table IX); format: cell-based, Staphylococcus aureus; conditions: Staphylococcus aureus, read-out: MIC
[18] = test system: Klebsiella X26; test: MIC, standard agar-dilution assay (Table IX); format: cell-based; conditions: read-out: MIC
[19] = test system: Group D strain 9960; test: MIC, standard agar-dilution assay (Table IX); format: cell-based, Streptococcus Group D; conditions: tested using predecessor Group D strain 9960
[20] = test system: Staphylococcus aureus S13E; test: MIC, standard agar-dilution assay (Table IX); format: cell-based; conditions: Staphylococcus aureus, S13E
[21] = test system: Haemophilus influenzae C.L.; test: MIC, standard agar-dilution assay (Table IX); format: cell-based; conditions: Ampicillin-sensitive strain, read-out: MIC
[22] = test system: Staphylococcus aureus X400; test: MIC, standard agar-dilution assay (Table IX); format: cell-based; conditions: Staphylococcus aureus X400, Methicillin-resistant strain, read-out: MIC
[23] = test system: Escherichia coli EC14; test: MIC, standard agar-dilution assay (Table IX); format: cell-based; conditions: read-out: MIC
[24] = test system: Staphylococcus epidermidis EPI1; test: MIC, standard agar-dilution assay (Table IX); format: cell-based; conditions: Staphylococcus epidermidis EPI1; agar-dilution; read-out: MIC
[25] = test system: Escherichia coli TEM; test: MIC, standard agar-dilution assay (Table IX); format: cell-based; conditions: read-out: MIC
[26] = test system: Streptococcus pyogenes C203; test: ED50 in mice experimentally infected with S. pyogenes C203 (Table XI); format: in vivo; conditions: Streptococcus pyogenes, doses given 1 and 4 hours postinfection, read-out: ED50
Procedure, shortened: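 Protective ED50 (mg/kg × 2) was determined as the dose sparing half the animals. Test compound was given twice, at 1 and 4 hours after experimental S. pyogenes C203 infection of mice.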

[27] = test system: Streptococcus pneumoniae Park I; test: MIC, standard agar-dilution assay (Table IX); format: cell-based; conditions: Streptococcus pneumoniae Park I; agar-dilution; read-out: MIC
[28] = test system: Staphylococcus aureus 19C; test: MIC, broth-dilution microtiter test (Table X); format: cell-based
Excerpt: as §1

[29] = test system: Mycoplasma hyopneumoniae S5972; test: MIC, broth-dilution microtiter test (Table X); format: cell-based; conditions: Mesomycoplasma hyopneumoniae, read-out: MIC
Excerpt: as §1

[30] = test system: Streptococcus Group D 2041; test: MIC, standard agar-dilution assay (Table IX); format: cell-based; conditions: GROUPD2041, read-out: MIC
[31] = test system: Pasteurella multocida; test: Pasteurella infection in one-day-old chicks, medicated drinking water (Table XIII); format: in vivo; conditions: Administered in the available drinking water at 2 g/gal
Procedure, shortened: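 Oral dosing was by medicated drinking water (2 g/gal), offered from 4–20 h pre-infection and through a 3-day observation period. The chicks, one day old, were infected s.c. with 0.1 ml of a 10^-4-diluted, 20-h tryptose broth culture of avian Pasteurella multocida.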

[32] = Titratable groups (first value)

SMILES | MIC [1] [µg/mL] | MIC [3] [µg/mL] | MIC [4] [µg/mL] | MIC [6] [µg/mL] | MIC [7] [µg/mL] | MIC [8] [µg/mL] | MIC [9] [µg/mL] | MIC [10] [µg/mL] | MIC [11] [µg/mL] | MIC [12] [µg/mL] | MIC [14] [µg/mL] | MIC [15] [µg/mL] | MIC [16] [µg/mL] | MIC [17] [µg/mL] | MIC [18] [µg/mL] | MIC [20] [µg/mL] | MIC [21] [µg/mL] | MIC [22] [µg/mL] | MIC [23] [µg/mL] | MIC [24] [µg/mL] | further results
CCC1OC(=O)CC(O)C(C)C(OC2OC(C)C(O)C(N(C)C)C2O)C(CCN2CCCCCCC2)CC(C)C(=O)C=CC(C)=CC1COC1OC(C)C(O)C(O)C1OC (stereo not shown) [Compound L5, 20-DH-DO-20-(octahydroazocin-1-yl)lactenocin] | 1 (≈ 1.17 µM) | 16 (≈ 18.7 µM) | > 128 | 0.5 (≈ 0.585 µM) | 12.5 (≈ 14.6 µM) | 3.12 (≈ 3.65 µM) | 0.78 (≈ 0.912 µM) | 6.25 (≈ 7.31 µM) | 12.5 (≈ 14.6 µM) | 50 (≈ 58.5 µM) | 6.25 (≈ 7.31 µM) | 0.5 (≈ 0.585 µM) | 6 (≈ 7.02 µM) | 1 (≈ 1.17 µM) | 16 (≈ 18.7 µM) | 1 (≈ 1.17 µM) | 32 (≈ 37.4 µM) | 2 (≈ 2.34 µM) | > 128 | 1 (≈ 1.17 µM) | pKa ([2]; Titratable groups): 9.3; pKa [2, 32]: 7.8; Number of Deaths/Number Treated [5]: 0/10; MIC [13]: 1.56 µg/mL (≈ 1.82 µM); MIC [19]: 16 µg/mL (≈ 18.7 µM); MIC [25]: 16 µg/mL (≈ 18.7 µM); ED50 ([26]; C203, Oral): 100 mg/kg; ED50 ([26]; C203, sc, Subcutaneous): 1.8 mg/kg; MIC [27]: 0.5 µg/mL (≈ 0.585 µM)
CCC1OC(=O)CC(O)C(C)C(OC2OC(C)C(O)C(N(C)C)C2O)C(CCN2CCc3ccccc32)CC(C)C(=O)C=CC(C)=CC1COC1OC(C)C(O)C(OC)C1OC (stereo not shown) [Compound D42] | 0.25 (≈ 0.286 µM) | 2 (≈ 2.29 µM) | > 128 | 0.5 (≈ 0.571 µM) | 25 (≈ 28.6 µM) | 0.195 (≈ 0.223 µM) | 0.78 (≈ 0.891 µM) | 0.097 (≈ 0.111 µM) | 50 (≈ 57.1 µM) | 3.12 (≈ 3.57 µM) | 12.5 (≈ 14.3 µM) | 0.25 (≈ 0.286 µM) | 8 (≈ 9.14 µM) | 5 (≈ 5.71 µM) | 64 (≈ 73.1 µM) | 0.5 (≈ 0.571 µM) | 16 (≈ 18.3 µM) | 0.5 (≈ 0.571 µM) | > 128 | 0.5 (≈ 0.571 µM) | MIC [28]: 0.78 µg/mL (≈ 0.891 µM); MIC [29]: 0.097 µg/mL (≈ 0.111 µM); MIC [30]: 2 µg/mL (≈ 2.29 µM); MIC [25]: > 128 µg/mL; MIC [27]: 0.25 µg/mL (≈ 0.286 µM)
CCC1OC(=O)CC(O)C(C)C(OC2OC(C)C(O)C(N(C)C)C2O)C(CCN2CCCCCCC2)CC(C)C(=O)C=CC(C)=CC1COC1OC(C)C(O)C(OC)C1OC (stereo not shown) [Compound D6] | 0.5 (≈ 0.575 µM) | 4 (≈ 4.6 µM) | 64 (≈ 73.6 µM) | 0.5 (≈ 0.575 µM) | 6.25 (≈ 7.19 µM) | 0.78 (≈ 0.897 µM) | 0.78 (≈ 0.897 µM) | 1.56 (≈ 1.79 µM) | 1.56 (≈ 1.79 µM) | 50 (≈ 57.5 µM) | 3.12 (≈ 3.59 µM) | 0.25 (≈ 0.288 µM) | 16 (≈ 18.4 µM) | 0.5 (≈ 0.575 µM) | 16 (≈ 18.4 µM) | 0.5 (≈ 0.575 µM) | 16 (≈ 18.4 µM) | 0.5 (≈ 0.575 µM) | 64 (≈ 73.6 µM) | 5 (≈ 5.75 µM) | Titratable groups [2]: 7.3; Titratable groups (first value) [2]: 5.4; pKa ([2]; Titratable groups): 9.4; pKa [2, 32]: 7.9; pKa ([2]; Titratable groups (third printed value)): 9.2; MIC [29]: 1.56 µg/mL (≈ 1.79 µM); MIC [13]: 0.78 µg/mL (≈ 0.897 µM); MIC [19]: 8 µg/mL (≈ 9.2 µM); MIC [25]: 16 µg/mL (≈ 18.4 µM); ED50 ([26]; C203, Oral): 14 mg/kg; ED50 ([26]; C203, sc, Subcutaneous): 0.7 mg/kg; MIC [27]: 0.5 µg/mL (≈ 0.575 µM)
CCC1OC(=O)CC(O)C(C)C(OC2OC(C)C(O)C(N(C)C)C2O)C(CCN2CCC(c3ccccc3)CC2)CC(C)C(=O)C=CC(C)=CC1COC1OC(C)C(O)C(OC)C1OC (stereo not shown) [Compound D4, 20-DH-DO-20-(4-Phenylpiperidin-1-yl)desmycosin] | 0.5 (≈ 0.545 µM) | 1 (≈ 1.09 µM) | 64 (≈ 69.8 µM) | 0.25 (≈ 0.273 µM) | 6.25 (≈ 6.81 µM) | < 0.05 | 0.09 (≈ 0.0981 µM) | 0.39 (≈ 0.425 µM) | 6.25 (≈ 6.81 µM) | 50 (≈ 54.5 µM) | 6.25 (≈ 6.81 µM) | 0.25 (≈ 0.273 µM) | 8 (≈ 8.72 µM) | 0.5 (≈ 0.545 µM) | 32 (≈ 34.9 µM) | 0.5 (≈ 0.545 µM) | 8 (≈ 8.72 µM) | 0.5 (≈ 0.545 µM) | 64 (≈ 69.8 µM) | 0.5 (≈ 0.545 µM) | Number of Deaths/Number Treated [5]: 9/10; MIC [29]: 0.78 µg/mL (≈ 0.85 µM); MIC [13]: 0.39 µg/mL (≈ 0.425 µM); MIC [19]: 2 µg/mL (≈ 2.18 µM); Number of Deaths/Number Treated [31]: 6/10; MIC [25]: 32 µg/mL (≈ 34.9 µM); ED50 ([26]; C203, Oral): 19 mg/kg; ED50 ([26]; C203, sc, Subcutaneous): 6 mg/kg; MIC [27]: 0.25 µg/mL (≈ 0.273 µM)
